# Experiments:
# [1] = system: Ube2V2 ubiquitination and cellular Ub pools; test: Ubiquitination analysis by IP, K63-TUBE pulldown and western blot in HEK293T cells; type: cell-based, human
# Experimental: Cells were lysed in 1×RIPA buffer containing in final concentrations 1× Protease inhibitor, 1 mM sodium orthovanadate and 1 mM PMSF, by rapid freeze-thaw (×3). Cell debris was removed and the supernatant was collected after centrifugation at 18,000×g for 20 min at 4° C. Protein concentration was determined using Bradford assay. 30-50 μg of total lysates were subjected to SDS-PAGE and the gel was transferred onto a PVDF membrane at 100 V for 1 h at 4° C. or at 40 V overnight at 4° C. Membrane was blocked with 10% milk and probed with various antibodies at the indicated dilutions (Table 4, above).
# HEK 293T cells were seeded in 2×60 cm^2 plates. After the cells reached 60% confluence (˜18-24 h), the old media was replaced with 8 mL of fresh complete media. Cells were transfected with 7.5 μg of the designated Halo clone and 30 μL PEI (1 mg/mL) in 600 μL in Opti-MEM media for 24-36 h after which the cells were treated with 25 μM Ht-PreHNE for 2.5 h. Rinsing and light shining protocol were as described above. Cells were harvested, pooled, washed twice with chilled 1×DPBS and flash frozen. Cell lysis was performed in 100-200 μL per 1.5×10^6 cells of either: lysis buffer [containing in final concentrations 50 mM HEPES (pH 7.6), 150 mM NaCl, 1% Nonidet P-40 and 1× Roche cOmplete, mini, EDTA-free protease inhibitor cocktail] for Flag pull down; or RIPA buffer [containing in final concentrations 50 mM HEPES (pH 7.6), 150 mM NaCl, 1% Nonidet P-40, 0.1% SDS, 0.25% sodium deoxycholate, and 1× Roche cOmplete, mini, EDTA-free protease inhibitor cocktail] for HA pull down, followed by rapid freeze-thaw cycles (×3). Lysate was clarified by centrifugation at 18,000×g for 10 min at 4° C. Total protein concentration was determined using Bradford assay with BSA as standard. The lysate was subsequently diluted to 2 mg/mL with binding buffer containing in final concentrations 50 mM HEPES (pH 7.6), 150 mM NaCl, 1× Roche cOmplete, mini, EDTA-free protease inhibitor cocktail, and 0.1% Tween-20. This diluted lysate was subjected to either 50-100 μL bed volume of ANTI-FLAG® M2 affinity gel (A2220, Sigma) or monoclonal anti-HA-agarose (clone HA-7, A2095, Sigma) that had been pre-equilibrated with the binding buffer above. The sample was incubated with beads for 2-3 h at 4° C. by end-over-end rotation after which time the supernatant was removed post-centrifugation at 1000×g (anti-FLAG pull down) or 5000×g (anti-HA pull down) for 3 min. The beads were washed three times at 4° C. with 500 μL wash buffer containing in final concentrations 50 mM HEPES (pH 7.6), 150 mM NaCl, 1× Roche cOmplete, mini, EDTA-free protease inhibitor cocktail, and 0.1% Tween-20, using end-over-end rotation over 10 min during each wash. The bound protein was eluted by either incubating with 0.15 mg/mL 3× flag peptide for 2 h at 4° C. (anti-Flag pull down) or by boiling the beads at 98° C. for 10 min with 30 μL of 3× Laemmeli dye containing 6% βME (anti-HA pull down). The sample was subjected to SDS-PAGE and transferred to a PVDF membrane for western blot analysis described above.
# Cells were grown and transfected as described above. After T-REX™ delivery, cells were harvested and lysed in 100-200 μL (˜1.5×10^6 cells) of lysis buffer [containing in final concentrations 50 mM HEPES (pH 7.6), 300 nM Biotin K63-TUBE, 150 mM NaCl, 5 mM EDTA, 3 mM 1,10-phenanthroline, 5 mM NEM, 20 μM PR-619, 1% Nonidet P-40 and 1× Roche cOmplete, mini, EDTA-free protease inhibitor cocktail] according to manufactures' manual (Biotin K63 TUBE, Lifesensors). Lysate was clarified by centrifugation at 18,000×g for 10 min at 4° C. Total protein concentration was determined using Bradford assay using BSA as standard. […]
# [2] = system: Nrf2-AR pathway; test: Flow cytometry ARE-GFP reporter assay; type: cell-based, human
# Experimental: (i) Transient transfection using TransIT-2020. Perform the transfection as described in Step 40 Option (C) (i). Briefly: Transfect the cells with ARE:GFP, pFN21a-Halo-Keap1, and pcDNA3.1 myc-Nrf2 in a 3:1:1 ratio by mass. For transient transfection of cells in a single well of a 48-well plate, in 26 μL of antibiotic-free, serum-free media add 156 ng of ARE:GFP, 52 ng of pFN21a-Halo-TEV-Keap1, and 52 ng of pcDNA3.1 myc-Nrf2 (260 ng total) followed by the addition of 0.78 μL of TransIT-2020. The lipoplex is mixed gently and incubated at room temperature for 20 min.
# (iv) Treatment of cells with T-REX™ delivery photocaged precursor and photo-uncaging (TIMING: 7 hours). […]
# In this flow cytometry assay, live cells are first gated by forward (size) and side scatter to give a general population of healthy cells (FIG. 26A). […] Analyzing this scatter group for green fluorescence (AR reporter) told a slightly different story to that painted by previous ensemble experiments (Parvez et al., “Substoichiometric Hydroxynonenylation of a Single Protein Recapitulates Whole-Cell-Stimulated Antioxidant Response,” J. Am. Chem. Soc. 137:10-13 (2015); Lin et al., “A Generalizable Platform for Interrogating Target- and Signal-Specific Consequences of Electrophilic Modifications in Redox-Dependent Cell Signaling,” J. Am. Chem. Soc. 137:6232-44 (2015), which are hereby incorporated by reference in their entirety).
smiles,measurement,setting,value
"CCCCCC(O)/C=C/C=O (centres unmarked) [HNE, 4-hydroxynonenal]",K63-linked total cellular Ub pools,[1]; HEK293T,did not alter K63-linked total cellular Ub pools
same,pan cellular poly-Ub-pools,[1]; HEK293T,no effect
same,K63-linked ubiquitination of Ube2V2 upon T-REX delivery,"[1]; cells expressing wt-Ube2V2, not C69S",significantly upregulated
same,AR-driven GFP signal,[2]; T-REX delivery on Halo-Keap1,increase in AR in all but cells with the highest basal AR
same,AR-driven GFP signal,[2]; whole-cell HNE treatment,strongly increases AR in a subset of cells

# Reference: US11506670B2, “Method of genome-wide direct identification of electrophile-sensing targets” (Cornell University, priority 2018, dated 2022)
